Columns and labels:
Test in all cases: relative viability (nuclei count vs DMSO), 5 days (fraction); higher = more cells survive
Doxorubicin + Crizotinib = compound: COc1cccc2c1C(=O)c1c(O)c3c(c(O)c1C2=O)C[C@@](O)(C(=O)CO)C[C@@H]3O[C@H]1C[C@H](N)[C@H](O)[C@H](C)O1 [Doxorubicin] + C[C@@H](Oc1cc(-c2cnn(C3CCNCC3)c2)cnc1N)c1c(Cl)ccc(F)c1Cl [Crizotinib] (partner 1 µM)
Summary of the method: (§1)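 For relative viability, nuclei counts in treated wells were divided by those in vehicle wells. Lung cancer cell lines had been pin-tool dosed in 1536-well plates the day after seeding and cultured for 5 days, then fixed and stained in one step (final 0.05% Triton X-100, 1% formaldehyde, 1 ug/ml Hoechst) and imaged at 4×. Doses were one drug alone or a fixed anchor-drug dose plus five library-drug doses (not always all listed) in √10 steps, and values are duplicate-plate medians.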

Doxorubicin + Olaparib = compound: COc1cccc2c1C(=O)c1c(O)c3c(c(O)c1C2=O)C[C@@](O)(C(=O)CO)C[C@@H]3O[C@H]1C[C@H](N)[C@H](O)[C@H](C)O1 [Doxorubicin] + O=C(c1cc(Cc2n[nH]c(=O)c3ccccc23)ccc1F)N1CCN(C(=O)C2CC2)CC1 [Olaparib] (partner 8 µM)
Summary of the method: as §1

Doxorubicin + Pemetrexed = compound: COc1cccc2c1C(=O)c1c(O)c3c(c(O)c1C2=O)C[C@@](O)(C(=O)CO)C[C@@H]3O[C@H]1C[C@H](N)[C@H](O)[C@H](C)O1 [Doxorubicin] + Nc1nc2[nH]cc(CCc3ccc(C(=O)N[C@@H](CCC(=O)O)C(=O)O)cc3)c2c(=O)[nH]1 [Pemetrexed] (partner 0.2 µM)
Summary of the method: as §1

BAY61-3606 + Linsitinib = compound: COC1=C(C=C(C=C1)C2=CC3=NC=CN3C(=N2)NC4=C(C=CC=N4)C(=O)N)OC [BAY61-3606] + C[C@]1(O)C[C@@H](c2nc(-c3ccc4ccc(-c5ccccc5)nc4c3)c3c(N)nccn32)C1 [Linsitinib] (partner 1 µM)
Summary of the method: as §1

Cell Line | relative viability (Doxorubicin + Crizotinib; first compound 0.001 µM) | relative viability (Doxorubicin + Crizotinib; first compound 0.003162 µM) | relative viability (Doxorubicin + Crizotinib; first compound 0.01 µM) | relative viability (Doxorubicin + Crizotinib; first compound 0.03162 µM) | relative viability (Doxorubicin + Crizotinib; first compound 0.1 µM) | relative viability (Doxorubicin + Olaparib; first compound 0.001 µM) | relative viability (Doxorubicin + Olaparib; first compound 0.003162 µM) | relative viability (Doxorubicin + Olaparib; first compound 0.01 µM) | relative viability (Doxorubicin + Olaparib; first compound 0.03162 µM) | relative viability (Doxorubicin + Olaparib; first compound 0.1 µM) | relative viability (Doxorubicin + Pemetrexed; first compound 0.001 µM) | relative viability (Doxorubicin + Pemetrexed; first compound 0.003162 µM) | relative viability (Doxorubicin + Pemetrexed; first compound 0.01 µM) | relative viability (Doxorubicin + Pemetrexed; first compound 0.03162 µM) | relative viability (Doxorubicin + Pemetrexed; first compound 0.1 µM) | relative viability (BAY61-3606 + Linsitinib; first compound 0.02 µM) | relative viability (BAY61-3606 + Linsitinib; first compound 0.06325 µM) | relative viability (BAY61-3606 + Linsitinib; first compound 0.2 µM) | relative viability (BAY61-3606 + Linsitinib; first compound 0.6325 µM) | relative viability (BAY61-3606 + Linsitinib; first compound 2 µM)
LC-2-ad | 0.265 | 0.414 | 0.459 | 0.416 | 0.389 | 0.343 | 0.679 | 0.707 | 0.707 | 0.696 | 0.267 | 0.255 | 0.264 | 0.305 | 0.288 | 0.971 | 0.922 | 0.897 | 0.827 | 0.562
NCI-H520 | 0.649 | 0.597 | 0.793 | 0.616 | 0.501 | 0.318 | 0.337 | 0.313 | 0.248 | 0.297 | 0.789 | 0.728 | 0.681 | 0.703 | 0.604 | 1.14 | 1.04 | 1.08 | 1.16 | 0.94
NCI-H460 | 0.887 | 0.882 | 0.273 | 0.0178 | 0.006 | 0.366 | 0.419 | 0.346 | 0.114 | 0.0883 | 0.0538 | 0.064 | 0.0574 | 0.0641 | 0.0392 | 1.03 | 0.77 | 0.752 | 0.822 | 0.189
SK-LU-1 | 1.15 | 1.03 | 0.639 | 0.472 | 0.32 | 0.512 | 0.451 | 0.397 | 0.359 | 0.356 | 0.929 | 1.08 | 0.903 | 0.601 | 0.513 | 1.13 | 1.21 | 0.987 | 0.984 | 0.482
COR-L23 | 0.764 | 0.66 | 0.562 | 0.252 | 0.0977 | 0.361 | 0.38 | 0.29 | 0.147 | 0.131 | 0.202 | 0.212 | 0.203 | 0.2 | 0.186 | 1.02 | 1.07 | 0.957 | 0.903 | 0.641
NCI-H2126 | 1.04 | 1.08 | 0.961 | 1.08 | 1.05 | 0.908 | 0.962 | 0.916 | 0.941 | 0.907 | 0.623 | 0.738 | 0.712 | 0.699 | 0.681 | 0.757 | 0.687 | 0.742 | 0.749 | 0.691
LCLC-103H | 1.07 | 1.06 | 1.03 | 1.06 | 1.19 | 0.726 | 0.82 | 0.726 | 0.799 | 0.769 | 0.499 | 0.484 | 0.458 | 0.467 | 0.466 | 1.07 | 1.13 | 1.12 | 1.37 | 1.13

Source: the supplement of paper PMC10307832
